The text below walks through data of patent publication US20200352912A1, “ANTIMICROBIAL COMPOSITIONS AND METHODS OF USING THE SAME” (The Board Of Supervisors Of Louisiana State University And …, priority 2018, published 2020).

The subject of experiment [1] is dual-species biofilm with C. albicans. The experiment can be described thus: biofilm formation on polystyrene (XTT, CFU). It is filed as cell-based, C. albicans and S. aureus. On the procedure:
(§1) The effect of L-161,982 on biofilm formation was tested. Mono- and dual-species C. albicans and/or S. aureus biofilms were grown on 96-well plates for 24 h with the indicated concentration of L-161, 982. After incubation, metabolic activity of biofilms was quantified by the XTT assay (A) and then biofilms were disrupted to determine live colony forming units (CFU) (B). The results are cumulative of three independent experiments with duplicate samples. Statistics was performed using One-way ANOVA with the Tukey post-hoc test for the XTT assay. The Mann-Whitney U test was used to analyze CFU data. Significance is indicated as follows: ns—not significant, *P<0.05; *** P<0.001. Error bars represent standard deviation.
(§2) Following growth as described above, microbes were washed in phosphate-buffered saline (PBS) by centrifugation, counted on a hemocytometer, and adjusted to 2×10^7 CFU/ml in RPMI buffered with MOPS (165 mM). […]
(§3) The XTT reduction assay was used to determine the metabolic activity of biofilms following treatment with L-161, 982 (17). Briefly, wells were washed once in PBS, and plates incubated at 37° C. for 2 h with 200 μl XTT working reagent (0.5 mg/ml XTT and 1 μM Menadione) and the resulting absorbance measured at 490 nm on a microplate spectrophotometer. […]

The test system of experiment [2] is S. aureus strain 43300. The experiment can be described thus: hemolysis assay. It is filed as cell-based, Staphylococcus aureus. As to the method: (A) Macroscopic analysis of S. aureus hemolytic activity. S. aureus was spotted on Mueller-Hinton agar containing sheep blood and/or various concentrations of L-161, 982, and incubated at 37 C for 24 h (0, 25 50, 100) or 72 h (200). (B) Width of the zone of RBC clearance was measured at 4 points around each S. aureus area of growth in 2 independent replicates. * p<0.05 control vs. drug-treated.
Strains and growth conditions. The methicillin-resistant S. aureus strain NRS383 was obtained from the Network on Antimicrobial Resistance in S. aureus (NARSA) data bank. As NRS383 has little or no hemolytic activity or pigmentation, S. aureus strain 43300 (ATCC) was used for the hemolysis and staphyloxanthin assays. Frozen stocks were obtained at −80° C. and streaked onto trypticase soy agar (TSA) plates at 37° C. prior to use. A single colony was transferred to 10 ml of trypticase soy broth (TSB) and shaken at 37° C. overnight. […]
Hemolysis Assay. Hemolytic activity was measured using Mueller-Hinton agar plates containing 5% defribinated sheep blood (Thermo Fisher)+/−L-161, 982 at a final concentration of 50 μg/ml. […] Plates were placed on a light box and digitally photographed and images were analyzed using Photoshop CS3. […] The width of each zone was measured at 0, 90, 180, 270° around growth spots (2-3 spots/group) using the ruler tool. […]

The subject of experiment [3] is planktonic S. aureus. The experiment can be described thus: MIC/MBC assay (CLSI broth dilution). It is filed as cell-based. As to conditions: Staphylococcus aureus. On the procedure: The CLSI reference method for broth dilution antimicrobial susceptibility testing of bacteria was used to determine the MIC of L-161, 982 (CLSI, 2008). Based on inhibition of S. aureus in the planktonic assay, TSB was used for all antimicrobial susceptibility testing of S. aureus. Cells were diluted in sterile TSB to a final concentration of 5.0×10^5 CFU/ml and 200-μl aliquots (1×10^5 CFU/well) were added to wells of sterile round-bottom 96-well plates. A stock solution of L-161, 982 was diluted in sterile TSB prior to addition to cells. Drug concentrations tested ranged from 1 to 100 μg/ml and were tested in triplicate. The plates were incubated at 37° C. for 24 h and the OD600 measured using a microplate spectrophotometer (BioTek Instruments, Synergy 2). Bacteriostatic or bactericidal activity was assessed by plating 20 μl of broth from all wells with no visible growth on TSA plates and plates incubated at 37° C. for 24-48 h. The MBC was the lowest drug concentration that prevented growth.
(In general: Broth dilution looks for growth in wells or tubes with falling amounts of substance.)

The subject of experiment [4] is C. albicans mono-species biofilm. The experiment can be described thus: biofilm formation on polystyrene (XTT, CFU). Format: cell-based, Candida albicans. As to conditions: treated vs untreated mono-species biofilms. As to the method:
as §1, §2, §3
(In general: Tetrazolium assays rely on reduction of a dye to a coloured formazan, in cell work by metabolically active cells.)

The target in experiment [5] is DP (Homo sapiens, UniProt Q13258). Particulars: cited from earlier work.
Sequence of DP (Q13258 whole entry): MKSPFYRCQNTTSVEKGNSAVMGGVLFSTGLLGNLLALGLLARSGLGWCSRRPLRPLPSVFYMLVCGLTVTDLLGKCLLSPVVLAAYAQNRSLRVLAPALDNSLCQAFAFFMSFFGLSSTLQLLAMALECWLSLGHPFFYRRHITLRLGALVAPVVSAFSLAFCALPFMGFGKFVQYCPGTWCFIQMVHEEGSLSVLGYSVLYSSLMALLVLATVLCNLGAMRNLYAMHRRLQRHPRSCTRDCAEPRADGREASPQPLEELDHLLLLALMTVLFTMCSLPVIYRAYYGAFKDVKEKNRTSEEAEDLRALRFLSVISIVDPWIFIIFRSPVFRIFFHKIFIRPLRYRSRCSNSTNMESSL
Experiment [6] addresses human EP4 receptors (Homo sapiens, UniProt P35408). Particulars: cited from earlier work.
In experiment [7] the test system is S. aureus NRS383. The experiment can be described thus: growth inhibition kinetics. It is filed as cell-based, Staphylococcus aureus. As to the method:
Growth of S. aureus NRS383 was monitored for up to 24 h in medium alone or supplemented with DMSO or 50 μg/ml L-161, 982. After 6 h of coincubation, fresh L-161, 982 was added to growth medium (*). Data shown are representative of three independent experiments.
We next investigated the kinetics of growth inhibition kinetics by L-161, 982 against S. aureus and drug stability. The minimum inhibitory concentration (MIC) of L-161, 982 against planktonic S. aureus was 50 μg/ml while the […] was 100 μg/ml. […] To address whether the loss of inhibition was due to drug degradation over time (half-life), or to adaptation of S. aureus cells to L-161, 982, fresh L-161, 982 (50 μg/ml) was added during the co-incubation.

Bounds are passed on as bounds.

Sequence of human EP4 receptors (P35408 whole entry): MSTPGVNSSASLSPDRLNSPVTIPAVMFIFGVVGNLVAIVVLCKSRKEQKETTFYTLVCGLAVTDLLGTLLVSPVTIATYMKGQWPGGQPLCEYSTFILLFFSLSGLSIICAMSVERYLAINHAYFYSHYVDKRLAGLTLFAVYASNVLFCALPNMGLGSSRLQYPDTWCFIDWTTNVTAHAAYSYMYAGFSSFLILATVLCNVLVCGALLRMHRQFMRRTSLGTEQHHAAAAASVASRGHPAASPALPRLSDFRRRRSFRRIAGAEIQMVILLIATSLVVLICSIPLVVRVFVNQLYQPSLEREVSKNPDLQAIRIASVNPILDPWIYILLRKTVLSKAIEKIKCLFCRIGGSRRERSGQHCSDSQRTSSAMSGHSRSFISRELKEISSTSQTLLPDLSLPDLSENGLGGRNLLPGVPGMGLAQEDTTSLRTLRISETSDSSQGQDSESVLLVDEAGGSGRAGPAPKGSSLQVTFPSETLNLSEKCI

The MBC is the smallest concentration meeting the test's criterion for killing. The term Ki denotes a dissociation constant, usually derived from enzyme kinetics or from competition with a known ligand. `CCCCc1nn(-c2ccccc2C(F)(F)F)c(=O)n1Cc1ccc(-c2ccccc2S(=O)(=O)NC(=O)c2sccc2C)cc1` [L-161, 982, N-[[4′-[[3-Butyl-1,5-dihydro-5-oxo-1-[2-(trifluoromethyl)phenyl]-4H-1,2,4-triazol-4-yl]methyl][1,1′-biphenyl]-2-yl]sulfonyl]-3-methyl-2-thiophenecarboxamide]: the “inhibitory effect in dual-species biofilm” value in experiment [1] is on record as “no inhibitory effect”. The “hemolytic activity, zones of clearance on blood agar” value in experiment [2] is listed as “significantly reduced zones of clearance”. The MBC in experiment [3] is 100 µg/mL. The MIC in experiment [3] (TSB, 24 h, read-out: minimum inhibitory concentration (MIC)) came out at 50 µg/mL. Also, the “metabolic activity during biofilm formation” value in experiment [4] is given as “no significant inhibition”. The Ki is 5100 nM in experiment [5] and 24 nM in experiment [6]. Further, the “inhibition when fresh L-161, 982 is added during co-incubation” value in experiment [7] (50 μg/ml, fresh 50 μg/ml after 6 h) is on record as “maintained inhibition over a 24 h period”. Also, in experiment [7] (at the MIC of 50 μg/ml), the “duration of inhibitory effect on S. aureus” value was at most 8 h.
